Measurements as given in patent US20130041005A1, “PHARMACEUTICAL COMPOSITIONS COMPRISING NEUROPILIN INHIBITORS, AND THEIR USE FOR THE PREVENTION AND/OR TREATMENT OF ANGIOGENIC DISORDERS AND CANCERS” (TRAGEX PHARMA, priority 2011, published 2013).
Entries after “also recorded” stand apart in the source; their conditions may differ.

Legend:
[1] = test system: HUVEC cells; test: Tube formation assay; type: cell-based; conditions: HUVEC on collagen, IC50 concentration (FIGS. 1D, 3B)
Method: Collagen type I (1 mg/ml, BD) was mixed with 0.1N NaOH, 0.1% bicarbonate and 10× in medium EBM-2 and kept on ice until placed into the wells. The assay was prepared in 96-well plate format and the bottom layer of collagen was formed by adding 70 μL of the solution per well and allowing subsequent gelation at 37° C. for 30 min. The HUVEC cells were then seeded on collagen at […] cells per well. After monolayer formation (one day), a second layer of collagen 200 μL per well was prepared according to the same protocol and gently placed on top of the cell layer. The compounds of the invention were added to the cells at the adhesion step (concentration corresponding to the Inhibitory Concentration 50 (IC50)). After 24 and 48 h of incubation at 37° C., tube formation was observed and pictures were taken.

[2] = target: T1, NRP-2 (Homo sapiens, UniProt O60462); test: ELISA inhibition of VEGF binding to NRP-2
T1 construct: fused on or other part: Possibly an Fc or His tag on the purchased soluble ectodomain
Method: Elisa test was performed covering a 96-well microplate (BD Biosciences, France, cat no 353046) surface with 100 μl of 1×PBS, pH 7.4 with Ca^2+ and Mg^2+, (Lonza, France, cat no 17-513F/12) solution containing 0.2 μg/ml of VEGF-R1 (R&D Systems, UK, cat no 321-FL-050/CF) or 2 μg/ml of NRP-1 (R&D Systems, UK, cat no 3870-N1-025) or NRP-2 (R&D Systems, UK, cat no 321-FL). The plate was sealed and incubated overnight at 4° C. After 3 washes with 200 μl of 1×PBS 0.5% (v/v) Tween 20 (Sigma, France, cat no 34078) (Buffer A), the plate was blocked by adding 200 μl of 1×PBS with 0.5% (w/v) BSA (Eurobio, France, cat no GAUBSA01-65) and agitated at 37° C. for 2 h. After washing five times with Buffer A, 50 μl/well of the compounds of the invention at 10 μM were added for the specific signal and 50 μl/well for the non-specific and max binding signal and incubated at 37° C. for 1 hour, shacking. […] Luminescence was quantified with an EnVision™ 2101 Multilabel reader (Perkin Elmer, USA) and the data analyzed by Wallac Envision manager software. […] Non-specific binding is defined as the signal measured in the absence of receptor coated on the microplate. The specific binding was calculated as the difference between total binding and non-specific binding. The percentage of inhibition was calculated as following: […]

[3] = test system: Panc-10.5; test: WST-1 proliferation assay, Panc-10.5; type: cell-based; conditions: Homo sapiens; PANC - 10.5, 0.05 μM
[4] = test system: NCI-H460; test: WST-1 proliferation assay, NCI-H460; type: cell-based; conditions: Homo sapiens; Lung NCI-H460; read-out: Anti-proliferative activity IC50 (μM) ± SD
Method: All the cancer cell lines were maintained in cultured in DMEM GlutaMAX™ (GIBCO Invitrogen, France, cat no 31966047) enhanced with 10% foetal bovine serum (GIBCO Invitrogen, France, cat no 10270-106) and 1% penicillin G/streptomycin (GIBCO Invitrogen, France, cat no 15140-122). Only Panc-10.5 cells were cultivated in RPMI 1640 medium (Gibco) supplemented with 2 mM L-glutamine, 1.5 g/L sodium bicarbonate, 4.5 g/L glucose, 10 mM HEPES, 1 mM sodium pyruvate, 10 Units/ml human insulin, […] (SVF): 15% (75 ml in 500 ml of medium).
Cells were grown as subconfluent monolayer and cultured in 75 cm^2 flasks at 37° C., 5% CO2 in a humidified atmosphere, and medium was changed every two days. […]
The cell proliferation WST-1 assay is a colorimetric assay for the quantification of cell proliferation and viability, based on the enzymatic cleavage of the tetrazolium salt WST-1 added to the culture medium, to a water soluble colored formazan dye, detected by absorbance at 450 nm, by mitochondrial succinate-tetrazolium reductase in viable cells. […]
After an incubation period of 72 h, at day 4, were prepared the 19 ml medium with reagent WST-1 1 ml ([…]). […] The cells were incubated at 37° C. in a humidified atmosphere of 5% CO2 for 1 h 30 and the absorbance at 450-655 nm was measured by Microplate Manager 5.2 (Bio-Rad).

T1 sequence (O60462 whole entry, the tested form may be a part): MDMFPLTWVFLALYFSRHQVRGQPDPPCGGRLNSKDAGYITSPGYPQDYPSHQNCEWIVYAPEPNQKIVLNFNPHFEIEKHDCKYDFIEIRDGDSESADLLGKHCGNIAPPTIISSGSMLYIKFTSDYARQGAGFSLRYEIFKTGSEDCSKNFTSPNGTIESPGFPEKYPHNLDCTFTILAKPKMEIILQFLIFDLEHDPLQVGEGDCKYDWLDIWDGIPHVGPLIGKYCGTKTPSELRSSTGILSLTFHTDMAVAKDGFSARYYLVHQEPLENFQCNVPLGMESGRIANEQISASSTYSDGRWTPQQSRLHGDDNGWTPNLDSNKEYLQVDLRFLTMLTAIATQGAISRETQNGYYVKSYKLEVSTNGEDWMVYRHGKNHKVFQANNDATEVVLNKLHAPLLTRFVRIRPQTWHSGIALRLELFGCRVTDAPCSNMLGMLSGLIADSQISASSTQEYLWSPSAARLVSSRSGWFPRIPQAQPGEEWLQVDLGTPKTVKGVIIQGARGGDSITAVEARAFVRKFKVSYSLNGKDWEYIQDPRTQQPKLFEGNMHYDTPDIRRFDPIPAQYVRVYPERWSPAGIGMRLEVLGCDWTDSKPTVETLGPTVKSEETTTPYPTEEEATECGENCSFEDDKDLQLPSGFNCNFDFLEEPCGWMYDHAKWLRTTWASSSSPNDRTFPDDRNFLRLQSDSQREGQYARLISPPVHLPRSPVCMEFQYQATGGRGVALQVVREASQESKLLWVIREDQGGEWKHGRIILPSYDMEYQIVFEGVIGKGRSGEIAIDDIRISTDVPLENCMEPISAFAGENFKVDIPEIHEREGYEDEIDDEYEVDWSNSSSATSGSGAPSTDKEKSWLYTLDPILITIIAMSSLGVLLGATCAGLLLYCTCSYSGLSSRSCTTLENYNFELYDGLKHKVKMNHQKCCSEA

Compound | formation of new blood vessels (tube formation) [1] | IC50 [2] | inhibition at 0.05 µM [3] | IC50 [4]
Cc1ccc(-c2nc3ccccc3[nH]2)cc1NC(=S)NC(=O)c1ccc2c(c1)OCCO2 [Compound 1, N-[5-(1H-benzimidazol-2-yl)-2-methylphenyl]-N′-(2,3-dihydro-1,4-benzodioxin-6-ylcarbonyl)thiourea] | inhibited the tube formation; also recorded: effectively inhibited | 42 ± 3.15 µM | 18% | 0.5 ± 0.09 µM
O=C(NC(=S)Nc1cccc(-c2nc3ccccc3[nH]2)c1)c1ccc2c(c1)OCCO2 [Compound 2, N-[3-(1H-benzimidazol-2-yl)phenyl]-N′-(2,3-dihydro-1,4-benzodioxin-6-ylcarbonyl)thiourea] | inhibited the tube formation; also recorded: effectively inhibited | 35 ± 5.23 µM | 35% | 0.3 ± 0.04 µM
